The values that follow come from patent US11987576B2, “Compositions and methods for decreasing, or preventing or reversing gain of, skin pigmentation in a mammalian subject” (THE TRUSTEES OF THE UNIVERSITY OF PENNSYLVANIA, priority 2015, dated 2024).

Experiment [1] has as its target T1, PR (Homo sapiens, UniProt P06401).
T1 sequence (P06401 1-933): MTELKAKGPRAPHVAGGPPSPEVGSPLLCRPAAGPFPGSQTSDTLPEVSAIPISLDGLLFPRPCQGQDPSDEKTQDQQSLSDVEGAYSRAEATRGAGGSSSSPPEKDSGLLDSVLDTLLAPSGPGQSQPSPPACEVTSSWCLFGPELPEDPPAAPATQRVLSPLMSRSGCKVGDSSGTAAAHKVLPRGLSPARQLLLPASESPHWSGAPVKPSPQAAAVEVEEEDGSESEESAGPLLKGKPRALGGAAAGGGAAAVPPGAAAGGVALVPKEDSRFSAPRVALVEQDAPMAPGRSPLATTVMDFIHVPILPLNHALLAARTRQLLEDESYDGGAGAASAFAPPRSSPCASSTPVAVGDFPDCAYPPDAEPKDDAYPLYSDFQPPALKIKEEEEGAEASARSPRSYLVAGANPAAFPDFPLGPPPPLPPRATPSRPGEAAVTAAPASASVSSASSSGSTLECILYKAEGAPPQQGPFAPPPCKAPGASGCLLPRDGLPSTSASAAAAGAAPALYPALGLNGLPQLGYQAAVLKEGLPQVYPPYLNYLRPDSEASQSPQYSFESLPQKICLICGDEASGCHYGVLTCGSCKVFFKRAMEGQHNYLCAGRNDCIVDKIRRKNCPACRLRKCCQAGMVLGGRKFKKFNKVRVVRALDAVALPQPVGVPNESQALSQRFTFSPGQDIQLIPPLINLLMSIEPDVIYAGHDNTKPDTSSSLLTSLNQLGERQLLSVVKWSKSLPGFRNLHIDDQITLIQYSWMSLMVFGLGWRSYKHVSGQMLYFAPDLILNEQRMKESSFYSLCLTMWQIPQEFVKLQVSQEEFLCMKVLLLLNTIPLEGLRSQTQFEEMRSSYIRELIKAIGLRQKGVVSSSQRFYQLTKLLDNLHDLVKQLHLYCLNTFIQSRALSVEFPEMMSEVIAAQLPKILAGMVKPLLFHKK
To be noted: cited from earlier work.

For experiment [2], the system named is 3-D organotypic skin. In words: Fontana-Masson melanin staining of 3-D organotypic skin. It is filed as cell-based, human. As to conditions: vs vehicle.
The test system of experiment [3] is ER. To be noted: cited from earlier work.
The test system of experiment [4] is pCREB and MITF. In words: Western blot of classical melanin pathway regulators in melanocytes. It is filed as cell-based, human. As to conditions: 1 μM overnight. Here is the method: Adherent cells were treated with 1 μM doses of E2 and P4 overnight, washed once with DPBS, and lysed with 1% NP-40 buffer (150 mM NaCl, 50 mM Tris, pH 7.5, 1 mM EDTA, and 1% NP-40) containing 1× protease inhibitors (Roche) and 1× phosphatase inhibitors (Roche). Lysates were quantified (Bradford assay), normalized, reduced, denatured (95° C.) and resolved by SDS gel electrophoresis on 4-15% Tris/Glycine gels (Bio-Rad). Resolved protein was transferred to PVDF membranes (Millipore) using a Semi-Dry Transfer Cell (Bio-Rad), blocked in 5% dry milk in TBS-T and probed with primary antibodies recognizing MITF (Cell Signaling Technology, #12590, 1:1000), pCREB (Cell Signaling Technology, #9198, 1:1000), CREB (Cell Signaling Technology, #9104, 1:1000), and β-Actin (Cell Signaling Technology, #3700, 1:4000). After incubation with the appropriate secondary antibody, proteins were detected using either Luminata Crescendo Western HRP Substrate (Millipore) or ECL Western Blotting Analysis System (GE Healthcare).

In experiment [5] the test system is cAMP. Kind of experiment: cAMP ELISA on primary human melanocytes. It is filed as cell-based. The protocol: cAMP ELISA was performed on primary human melanocytes using the Cyclic AMP XP Assay Kit (Cell Signaling Technology, #4339) following manufacturer instructions.
Experiment [6] has as its system 3-D organotypic skin. Kind of experiment: MITF immunohistochemistry of organotypic skin (melanocyte population density). It is filed as cell-based, human. As to conditions: vs vehicle. From the text: Formalin fixed paraffin embedded (FFPE) human skin tissue sections from organotypic tissue was stained for MITF protein expression using a primary antibody to MITF (Leica Biosystems, NCL-L-MITF, 1:15).

`C=C[C@]12CCC(=O)C=C1CC[C@H]1[C@@H]3CC[C@H](C(C)=O)[C@@]3(C)CC[C@@H]12` (relative stereo) [CH2P4, rel-(8S,9S,10S,13 S,14S,17S)-17-acetyl-13-methyl-10-vinyl-6,7,8,9,10,11,12,13,14,15,16,17-dodecahydro-1H-cyclopenta[a]phenanthren-3 (2H)-one]: in experiment [1], the “binding to PR” value is “does not bind”. Further, the “melanin production in skin tissue” value in experiment [2] is on record as “decrease in melanin production”.
Consider `Brc1cc2c(cc1[C@H]1Nc3ccccc3[C@@H]3C=CC[C@H]13)OCO2` (relative stereo) [G-15, rel-(3aS,4S,9bR)-4-(6-bromobenzo[d][1,3]dioxol-5-yl)-3a,4,5,9b-tetrahydro-3H-cyclopenta[c]quinoline], for which the “inhibitory activity against ER” value in experiment [3] is “do not have inhibitory activity”.
Take `CC(=O)[C@H]1CC[C@H]2[C@@H]3CCC4=CC(=O)CC[C@]4(C)[C@H]3CC[C@]12C` [progesterone]: in experiment [4], the MITF protein result was “decreases” and the pCREB protein result is recorded as “decreases”. The cAMP result in experiment [5] is “decreases”. For the same compound, the “total melanocyte number or density” value in experiment [6] is “without affecting overall melanocyte cell number”. For the same compound, in experiment [2], the “melanin production in skin tissue” value is “decreased melanin production by nearly half”.
